Assay results taken from patent publication US20210253651A1, “METHOD FOR PRODUCING ORGANIC COMPOUND-ENCAPSULATING FERRITIN” (Ajinomoto Co., Inc., priority 2018, published 2021).

Assays:
[1] = target: T1, FTH ferritin (Homo sapiens, UniProt P02794); test: ratio of amounts incorporated, one-step vs disassembly-reassembly process; format: physicochemical
T1 construct: made in house; host or cells: Escherichia coli BL21 (DE3), plasmid pET20-FTH
Method: As a control, some of small molecule agents listed in Table 1 was incorporated into ferritin also at the disassembly-reassembly process. […] Then, 10 μL of 1M Tris-HCl buffer (pH 9.0) was added for neutralization, and the resulting solution was left to stand for 15 minutes at room temperature. After the standing, 0.5 mL of water was added. After the resulting solution was centrifuged (at 15,000 rpm for one minute), the supernatant was injected into the desalting column PD-10 (Sephadex G-25 filled product, GE Healthcare Inc.) equilibrated with 10 mM Tris-HCl buffer (pH 8) to separate the protein from a reagent that was not encapsulated. […]
The absorbances were measured using spectrophotometer (DU-800, Beckman Coulter Inc.) for these solutions, and the concentration of contained protein was determined using the protein assay CBB solution (Nacalai Tesque, Inc.) as well as bovine albumin as a standard. Absorbances at 280 nm and 480 nm were measured for Rhodamine B and Congo Red. […] Then, after the absorbances were calibrated based on the absorbances that were derived from the proteins and presumed by the amount of contained protein quantified using the protein assay CBB solution, the concentrations of small molecule agents were determined based on the calibration curves obtained by the absorbances of the molecules. […]

[2] = target: T1, FTH ferritin; test: one-step process incorporation of small molecule agents into FTH ferritin; format: physicochemical; settings: for Incorporation efficiency (wt %) / Number of agent incorporated: 60 min
Method: All of the reactions were performed in 0.1 mL volume. […] The absorbances were measured using spectrophotometer (DU-800, Beckman Coulter Inc.) for these solutions, and the concentration of contained protein was determined using the protein assay CBB solution (Nacalai Tesque, Inc.) as well as bovine albumin as a standard. Absorbances at 280 nm and 480 nm were measured for Rhodamine B and Congo Red. […] Then, after the absorbances were calibrated based on the absorbances that were derived from the proteins and presumed by the amount of contained protein quantified using the protein assay CBB solution, the concentrations of small molecule agents were determined based on the calibration curves obtained by the absorbances of the molecules. […] As a result, the one-step process enabled incorporating also the small molecule agents with different physical properties such as molecular weight and pKa simply and easily.

T1 sequence (P02794 whole entry): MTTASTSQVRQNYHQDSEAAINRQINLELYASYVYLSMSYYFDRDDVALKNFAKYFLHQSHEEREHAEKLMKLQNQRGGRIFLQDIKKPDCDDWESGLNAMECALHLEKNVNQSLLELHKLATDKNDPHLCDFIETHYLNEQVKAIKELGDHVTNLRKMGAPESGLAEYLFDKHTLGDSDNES

CN(C)C(=N)NC(=N)N [Metformin]
ratio of amount incorporated at the one-step process to that at the disassembly-reassembly process [1]: 2.5 fold | Incorporation efficiency (wt %) ([2]; pH 4, 40° C.): 0.0 wt % | Number of agent incorporated ([2]; pH 4, 40° C.): 0.0 | Incorporation efficiency (wt %) ([2]; pH 6, 40° C.): 0.0 wt % | Number of agent incorporated ([2]; pH 6, 40° C.): 0.2 | Incorporation efficiency (wt %) ([2]; pH 8, 20° C.): 1.9 wt % | Number of agent incorporated ([2]; pH 8, 20° C.): 78.0 | Incorporation efficiency (wt %) ([2]; pH 8, 40° C.): 0.1 wt % | Number of agent incorporated ([2]; pH 8, 40° C.): 2.9 | Incorporation efficiency (wt %) ([2]; pH 8, 60° C.): 1.3 wt % | Number of agent incorporated ([2]; pH 8, 60° C.): 53.5 | Incorporation efficiency (wt %) ([2]; pH 10, 40° C.): 0.0 wt % | Number of agent incorporated ([2]; pH 10, 40° C.): 1.8 | Optimal pH in reaction ([2]; pH of buffer giving the largest amount of incorporation within ferritin): 8
